Assay [1] concerns C8166. The assay is described as follows: Compound was evaluated for anti-HIV activity against HIV-1 infected C8166 cell lines. It counts as functional, cell-based. Conditions: Homo sapiens.
Assay [2] concerns C8166. Briefly: Concentration of compound required to reduce viability of C8166 cells by 50%. To be noted: Homo sapiens. It counts as functional.
For assay [3], the system named is CCRF-CEM. Briefly: Concentration of compound required to reduce viability of CEM/0 cells by 50%. Conditions: Homo sapiens. It counts as functional.
Assay [4] has as its system CCRF-CEM. The assay is described as follows: Compound was evaluated for anti-HIV activity against HIV-1 infected CEM/0 cell lines. The format is functional, cell-based. To be noted: Homo sapiens.
Assay [5] relates to CCRF-CEM. Briefly: Compound was evaluated for anti-HIV activity against HIV-2 infected CEM/0 cell lines. The format is functional, cell-based. Conditions: Homo sapiens.
Assay [6] deals with Human immunodeficiency virus type 1 reverse transcriptase (Human immunodeficiency virus 1, UniProt Q72547). Briefly: Inhibition of HIV-1 reverse transcriptase.
Another assay concerns CEM-TK(-). The assay is described as follows: Compound was evaluated for anti-HIV activity against HIV-2 infected CEM/TK- cell lines. Conditions: Homo sapiens.
The species entered for a further assay is Homo sapiens. The assay is described as follows: Compound was evaluated for anti-HIV activity against HIV-2 infected CEM/TK- cell lines. The format is functional, organism-based.

The EC50 is the concentration needed to bring the measured effect to its halfway point. A high value points to a need for much substance. Usually CC50 stands for the concentration at which the toxic effect on the cells reaches its halfway point. A lower CC50 goes with harm at low concentration. The IC50 is the midpoint of a concentration-inhibition curve. Lower therefore signals higher potency.

Bounds are passed on as bounds.

As to `Cc1cn(C2C=CC(COC(=O)CC(O)(CC(=O)OCc3ccccc3)C(=O)OCc3ccccc3)O2)c(=O)[nH]c1=O` (centres undefined), the EC50 with C8166 [1] was determined as 1.6 µM; with CCRF-CEM [4], 1.6 µM; in the assay with CCRF-CEM [5], 0.55 µM; in the assay with CEM-TK(-), 87 µM. In addition, the CC50 with C8166 [2] worked out at 500 µM; with CCRF-CEM [3], 64 µM. The IC50 in assay [6] was more than 100 µM.

In the case of `Cc1cn(C2C=CC(COC(=O)CC(O)(CC(=O)O)C(=O)O)O2)c(=O)[nH]c1=O` (centres undefined), the EC50 with C8166 [1] was 3.2 µM; with CCRF-CEM [4] it was 4 µM; in the assay with CCRF-CEM [5] it was 4 µM; in the assay listed under Homo sapiens, more than 250 µM. The results for the CC50 in the assay with C8166 [2] and in the assay with CCRF-CEM [3] were 500 µM and 209 µM, respectively. Besides, the IC50 in assay [6] is more than 100 µM.

In turn, `Cc1cn(C2C=CC(CNC(=O)CC(O)(CC(=O)O)C(=O)O)O2)c(=O)[nH]c1=O` (centres undefined) came in with an EC50 in the assay with C8166 [1] of more than 2500 µM. The same compound showed a CC50 with C8166 [2] of more than 2500 µM. In assay [6], this compound came in with an IC50 of more than 100 µM.

Regarding `C=CCOC(=O)CC(O)(CC(=O)NCC1C=CC(n2cc(C)c(=O)[nH]c2=O)O1)C(=O)OCC=C` (centres undefined), the EC50 in the assay on C8166 [1] was 400 µM; with CCRF-CEM [4], more than 250 µM; with CCRF-CEM [5], more than 250 µM. The CC50 is more than 1000 µM in the assay on C8166 [2] and more than 250 µM in the assay with CCRF-CEM [3]. Further, the IC50 in assay [6] was more than 100 µM.

For the compound `COC(=O)CC(O)(CC(=O)NCC1C=CC(n2cc(C)c(=O)[nH]c2=O)O1)C(=O)OC` (centres undefined), the EC50 was 1000 µM with C8166 [1], more than 250 µM with CCRF-CEM [4] and more than 250 µM in the assay on CCRF-CEM [5]. Besides, the half-maximal cytotoxic concentration (CC50) was more than 1000 µM in the assay on C8166 [2] and more than 250 µM with CCRF-CEM [3]. This compound showed a concentration for half-maximal inhibition (IC50) in assay [6] of more than 100 µM.

With `COC(=O)CC1(CC(=O)OCC2C=CC(n3cc(C)c(=O)[nH]c3=O)O2)OCOC1=O` (centres undefined), the EC50 was 0.8 µM with C8166 [1], 0.95 µM with CCRF-CEM [4], 2.5 µM in the assay on CCRF-CEM [5] and 110 µM with CEM-TK(-). Besides, the CC50 was 400 µM in the assay on C8166 [2] and 100 µM with CCRF-CEM [3]. In assay [6], this compound gave an IC50 of more than 100 µM.

For the compound `C=CCOC(=O)CC(O)(CC(=O)OCC1C=CC(n2cc(C)c(=O)[nH]c2=O)O1)C(=O)OCC=C` (centres undefined), the EC50 stood at 1 µM with C8166 [1], 0.7 µM with CCRF-CEM [4], 0.55 µM in the assay on CCRF-CEM [5] and 72 µM with CEM-TK(-). Besides, the CC50 came to 500 µM in the assay on C8166 [2] and 69 µM in the assay on CCRF-CEM [3]. The compound also showed an IC50 in assay [6] of more than 100 µM.

As for `Cc1cn(C2C=CC(COC(=O)CC3(CC(=O)O)OCOC3=O)O2)c(=O)[nH]c1=O` (centres undefined), the EC50 in the assay with C8166 [1] is 4 µM; in the assay with CCRF-CEM [4] it was 3.47 µM; in the assay with CCRF-CEM [5], 4.5 µM; in the assay with CEM-TK(-), more than 250 µM. Also, the CC50 with C8166 [2] was 1000 µM; with CCRF-CEM [3], more than 250 µM. The compound also yielded an IC50 in assay [6] of more than 100 µM.

Regarding `C=CCOC(=O)CC1(CC(=O)OCC2C=CC(n3cc(C)c(=O)[nH]c3=O)O2)OCOC1=O` (centres undefined), the EC50 in the assay on C8166 [1] worked out at 0.8 µM; in the assay with CCRF-CEM [4] it was 2 µM; in the assay on CCRF-CEM [5] it was 1.6 µM; with CEM-TK(-) it was 78 µM. For the same compound, the CC50 was found to be 500 µM in the assay on C8166 [2] and 179 µM in the assay with CCRF-CEM [3]. The same compound showed an IC50 in assay [6] of more than 100 µM.

Turning to `Cc1cn(C2C=CC(COC(=O)CC3(CC(=O)OCc4ccccc4)OCOC3=O)O2)c(=O)[nH]c1=O` (centres undefined), the EC50 was 8 µM with C8166 [1], 1.35 µM in the assay with CCRF-CEM [4], 3 µM with CCRF-CEM [5] and more than 250 µM with CEM-TK(-). The CC50 came out at 400 µM in the assay with C8166 [2] and 92.8 µM in the assay on CCRF-CEM [3].

For `Cc1cn([C@H]2C[C@H](N=[N+]=[N-])[C@@H](CO)O2)c(=O)[nH]c1=O` [ZIDOVUDINE], the EC50 with C8166 [1] was 0.016 µM; with CCRF-CEM [5], 0.006 µM; in the assay on CEM-TK(-), more than 250 µM. Besides, the values for the CC50 with C8166 [2] and in the assay with CCRF-CEM [3] were more than 1000 µM and more than 250 µM, respectively. This compound returned an IC50 in assay [6] of more than 100 µM.
